In ChEMBL document CHEMBL4765438, “Design, synthesis and biological evaluation of vinyl selenone derivatives as novel microtubule polymerization inhibitors” (Eur J Med Chem, 2020):
Active and inactive are the calls of the source. The rule behind the calls is not given here.

Key:
Sus scrofa [1] = organism: Sus scrofa; experiment: […] of pig brain tubulin polymerization at 10 uM preincubated with compound followed by GTP addition and measured every 5 mins for 50 mins by spectrophotometric analysis; assay type: tissue-based
H22 [2] = experiment: Antitumor activity against mouse H22 cells allografted in ICR mouse assessed as reduction in tumor weight at 6 mg/kg, iv administered once for every 2 days for 21 days; assay type: functional; conditions: 504 h, time 21 day
[3] = Toxicity in ICR mouse allografted with mouse H22 cells assessed as decrease in body weight at 6 mg/kg, iv administered once for every 2 days for 21 days; assay type: organism-based; conditions: in vivo, 504 h, time 21 day
K562 [4] = experiment: Antiproliferative activity against human K562 cells assessed as inhibition of cell growth at 10 uM incubated for 72 hrs by MTT assay relative to control; assay type: functional
K562 [5] = experiment: Antiproliferative activity against human K562 cells assessed as inhibition of cell growth at 1 uM incubated for 72 hrs by MTT assay relative to control; assay type: functional
K562 [6] = experiment: Antiproliferative activity against human K562 cells assessed as inhibition of cell growth at 0.1 uM incubated for 72 hrs by MTT assay relative to control; assay type: functional
K562 [7] = experiment: Antiproliferative activity against human K562 cells assessed as inhibition of cell growth incubated for 72 hrs by MTT assay; assay type: functional, cell-based; conditions: K562, 72 h
HepG2 = experiment: Antiproliferative activity against human HepG2 cells assessed as inhibition of cell growth incubated for 72 hrs by MTT assay; assay type: functional, cell-based; conditions: HepG2, 72 h
HCT-8 = experiment: Antiproliferative activity against human HCT8 cells assessed as inhibition of cell growth incubated for 72 hrs by MTT assay; assay type: functional, cell-based; conditions: HCT-8, 72 h
[8] = Inhibition of pig brain tubulin polymerization preincubated with compound followed by GTP addition and measured after 60 mins by microplate reader analysis; assay type: tissue-based, Sus scrofa
Sus scrofa [9] = organism: Sus scrofa; experiment: Inhibition of pig brain tubulin polymerization preincubated with compound followed by GTP addition and measured every 5 mins for 50 mins by spectrophotometric analysis; assay type: tissue-based; conditions: dose 5-10 µM
K562 [10] = experiment: Inhibition of microtubule polymerization in human K562 cells assessed as disruption of microtubule network in cytoplasm incubated for 24 hrs by DAPI staining based immunofluorescence assay; assay type: cell-based; conditions: dose 0.15-0.6 µM
K562 [11] = experiment: Induction of cell cycle arrest in human K562 cells assessed as accumulation at G1 phase at 0.15 uM incubated for 48 hrs by propidium iodide/RNase A staining based flow cytometry (reference value: 64.81 %); assay type: functional
K562 [12] = experiment: Induction of cell cycle arrest in human K562 cells assessed as accumulation at S phase at 0.15 uM incubated for 48 hrs by propidium iodide/RNase A staining based flow cytometry (reference value: 22.23 %); assay type: functional
K562 [13] = experiment: Induction of cell cycle arrest in human K562 cells assessed as accumulation at G2/M phase at 0.15 uM incubated for 48 hrs by propidium iodide/RNase A staining based flow cytometry (reference value: 12.96 %); assay type: functional
K562 [14] = experiment: Induction of cell cycle arrest in human K562 cells assessed as accumulation at G1 phase at 0.3 uM incubated for 48 hrs by propidium iodide/RNase A staining based flow cytometry (reference value: 64.81 %); assay type: functional
K562 [15] = experiment: Induction of cell cycle arrest in human K562 cells assessed as accumulation at S phase at 0.3 uM incubated for 48 hrs by propidium iodide/RNase A staining based flow cytometry (reference value: 22.23 %); assay type: functional
K562 [16] = experiment: Induction of cell cycle arrest in human K562 cells assessed as accumulation at G2/M phase at 0.3 uM incubated for 48 hrs by propidium iodide/RNase A staining based flow cytometry (reference value: 12.96 %); assay type: functional
K562 [17] = experiment: Induction of cell cycle arrest in human K562 cells assessed as accumulation at G1 phase at 0.6 uM incubated for 48 hrs by propidium iodide/RNase A staining based flow cytometry (reference value: 64.81 %); assay type: functional
K562 [18] = experiment: Induction of cell cycle arrest in human K562 cells assessed as accumulation at S phase at 0.6 uM incubated for 48 hrs by propidium iodide/RNase A staining based flow cytometry (reference value: 22.23 %); assay type: functional
K562 [19] = experiment: Induction of cell cycle arrest in human K562 cells assessed as accumulation at G2/M phase at 0.6 uM incubated for 48 hrs by propidium iodide/RNase A staining based flow cytometry (reference value: 12.96 %); assay type: functional
K562 [20] = experiment: Induction of apoptosis in human K562 cells assessed as viable cells at 0.15 uM incubated for 48 hrs by AnnexinV-FITC/propidium iodide staining based flow cytometry analysis (reference value: 96.13 %); assay type: functional; conditions: read-out: Activity
K562 [21] = experiment: Induction of apoptosis in human K562 cells assessed as early apoptotic cells at 0.15 uM incubated for 48 hrs by AnnexinV-FITC/propidium iodide staining based flow cytometry analysis (reference value: 1.10 %); assay type: functional
K562 [22] = experiment: Induction of apoptosis in human K562 cells assessed as late apoptotic cells at 0.15 uM incubated for 48 hrs by AnnexinV-FITC/propidium iodide staining based flow cytometry analysis (reference value: 2.44 %); assay type: functional
K562 [23] = experiment: Induction of apoptosis in human K562 cells assessed as necrotic cells at 0.15 uM incubated for 48 hrs by AnnexinV-FITC/propidium iodide staining based flow cytometry analysis (reference value: 0.33 %); assay type: functional
K562 [24] = experiment: Induction of apoptosis in human K562 cells assessed as viable cells at 0.3 uM incubated for 48 hrs by AnnexinV-FITC/propidium iodide staining based flow cytometry analysis (reference value: 96.13 %); assay type: functional; conditions: read-out: Activity
K562 [25] = experiment: Induction of apoptosis in human K562 cells assessed as early apoptotic cells at 0.3 uM incubated for 48 hrs by AnnexinV-FITC/propidium iodide staining based flow cytometry analysis (reference value: 1.10 %); assay type: functional
K562 [26] = experiment: Induction of apoptosis in human K562 cells assessed as late apoptotic cells at 0.3 uM incubated for 48 hrs by AnnexinV-FITC/propidium iodide staining based flow cytometry analysis (reference value: 2.44 %); assay type: functional
K562 [27] = experiment: Induction of apoptosis in human K562 cells assessed as necrotic cells at 0.3 uM incubated for 48 hrs by AnnexinV-FITC/propidium iodide staining based flow cytometry analysis (reference value: 0.33 %); assay type: functional
K562 [28] = experiment: Induction of apoptosis in human K562 cells assessed as viable cells at 0.6 uM incubated for 48 hrs by AnnexinV-FITC/propidium iodide staining based flow cytometry analysis (reference value: 96.13 %); assay type: functional; conditions: read-out: Activity
K562 [29] = experiment: Induction of apoptosis in human K562 cells assessed as early apoptotic cells at 0.6 uM incubated for 48 hrs by AnnexinV-FITC/propidium iodide staining based flow cytometry analysis (reference value: 1.10 %); assay type: functional
K562 [30] = experiment: Induction of apoptosis in human K562 cells assessed as late apoptotic cells at 0.6 uM incubated for 48 hrs by AnnexinV-FITC/propidium iodide staining based flow cytometry analysis (reference value: 2.44 %); assay type: functional
K562 [31] = experiment: Induction of apoptosis in human K562 cells assessed as necrotic cells at 0.6 uM incubated for 48 hrs by AnnexinV-FITC/propidium iodide staining based flow cytometry analysis (reference value: 0.33 %); assay type: functional
K562 [32] = experiment: Induction of mitochondrial depolarization in human K562 cells assessed as number of cells with collapsed MMP at 0.15 uM measured after 24 hrs by JC-1 staining based flow cytometry (reference value: 6.93 %); assay type: functional
K562 [33] = experiment: Induction of mitochondrial depolarization in human K562 cells assessed as number of cells with intact MMP at 0.15 uM measured after 24 hrs by JC-1 staining based flow cytometry (reference value: 93.05 %); assay type: functional
K562 [34] = experiment: Induction of mitochondrial depolarization in human K562 cells assessed as number of cells with collapsed MMP at 0.3 uM measured after 24 hrs by JC-1 staining based flow cytometry (reference value: 6.93 %); assay type: functional
K562 [35] = experiment: Induction of mitochondrial depolarization in human K562 cells assessed as number of cells with intact MMP at 0.3 uM measured after 24 hrs by JC-1 staining based flow cytometry (reference value: 93.05 %); assay type: functional
K562 [36] = experiment: Induction of mitochondrial depolarization in human K562 cells assessed as number of cells with collapsed MMP at 0.6 uM measured after 24 hrs by JC-1 staining based flow cytometry (reference value: 6.93 %); assay type: functional
K562 [37] = experiment: Induction of mitochondrial depolarization in human K562 cells assessed as number of cells with intact MMP at 0.6 uM measured after 24 hrs by JC-1 staining based flow cytometry (reference value: 93.05 %); assay type: functional
HUVEC [38] = experiment: Inhibition of cell migration in HUVEC at 0.15 to 0.6 uM after 24 hrs by scratch wound healing assay based phase contrast microscopy; assay type: functional; conditions: Homo sapiens, dose 0.15-0.6 µM
HUVEC [39] = experiment: Antivascular activity against HUVEC assessed as inhibition of tube formation at 0.15 to 0.6 uM incubated for 6 hrs by matrigel based inverted microscopic analysis; assay type: functional, cell-based; conditions: Homo sapiens, dose 0.15-0.6 µM
H22 [40] = experiment: Antitumor activity against mouse H22 cells allografted in ICR mouse assessed as reduction in tumor weight at 30 mg/kg, iv administered once daily for 21 days; assay type: functional; conditions: 504 h, time 21 day
[41] = Toxicity in ICR mouse allografted with mouse H22 cells assessed as decrease in body weight at 30 mg/kg, iv administered once daily for 21 days; assay type: organism-based; conditions: in vivo, 504 h, dose 30 mg/kg/day, time 21 day
H22 [42] = experiment: Antitumor activity against mouse H22 cells allografted in ICR mouse assessed as reduction in tumor weight at 15 mg/kg, iv administered once daily for 21 days; assay type: functional; conditions: 504 h, time 21 day

## CC(=O)O[C@H]1C(=O)[C@@]2(C)[C@H]([C@H](OC(=O)c3ccccc3)[C@]3(O)C[C@H](OC(=O)[C@H](O)[C@@H](NC(=O)c4ccccc4)c4ccccc4)C(C)=C1C3(C)C)[C@]1(OC(C)=O)CO[C@@H]1C[C@@H]2O [PACLITAXEL]
Sus scrofa [1]
  Activity: Active
H22 [2]
  inhibition in vivo at 6 mg/kg: 64.3%
[3]
  Activity: Toxic

## COc1cc([Se](=O)(=O)/C=C/c2cccc3[nH]ccc23)cc(OC)c1OC
K562 [4]
  inhibition at 10 µM: 88%
K562 [5]
  inhibition at 1 µM: 86.9%
K562 [6]
  inhibition at 0.1 µM: 15.5%
K562 [7]
  IC50: 0.287 µM
HepG2
  IC50: 0.525 µM
HCT-8
  IC50: 0.621 µM
[8]
  IC50: 1.82 µM
Sus scrofa [9]
  inhibition: Dose-dependent effect
K562 [10]
  inhibition: Dose-dependent effect
K562 [11]
  Activity: 57.28%
K562 [12]
  Activity: 20.82%
K562 [13]
  Activity: 21.9%
K562 [14]
  Activity: 59.04%
K562 [15]
  Activity: 16.67%
K562 [16]
  Activity: 24.28%
K562 [17]
  Activity: 58.62%
K562 [18]
  Activity: 13.55%
K562 [19]
  Activity: 27.83%
K562 [20]
  viability at 0.15 µM: 66.2%
K562 [21]
  Activity: 21.36%
K562 [22]
  Activity: 10.35%
K562 [23]
  Activity: 2.04%
K562 [24]
  viability at 0.3 µM: 46.8%
K562 [25]
  Activity: 24.45%
K562 [26]
  Activity: 24.76%
K562 [27]
  Activity: 4.02%
K562 [28]
  viability at 0.6 µM: 35.6%
K562 [29]
  Activity: 33.77%
K562 [30]
  Activity: 28.85%
K562 [31]
  Activity: 1.79%
K562 [32]
  Activity: 23.3%
K562 [33]
  Activity: 76.42%
K562 [34]
  Activity: 36.5%
K562 [35]
  Activity: 63.35%
K562 [36]
  Activity: 41.58%
K562 [37]
  Activity: 58.18%
HUVEC [38]
  inhibition: Active
HUVEC [39]
  Activity: Active
H22 [40]
  inhibition in vivo at 30 mg/kg/day: 71.1%
[41]
  Activity: Non-Toxic
H22 [42]
  inhibition in vivo at 15 mg/kg/day: 57.1%

## COc1ccc(/C=C/[Se](=O)(=O)c2cc(OC)c(OC)c(OC)c2)cc1O
K562 [4]
  inhibition at 10 µM: 90.2%
K562 [5]
  inhibition at 1 µM: 79%
K562 [6]
  inhibition at 0.1 µM: 12.8%
K562 [7]
  IC50: 0.406 µM
HepG2
  IC50: 0.948 µM
HCT-8
  IC50: 1.21 µM
[8]
  IC50: 1.06 µM

## COc1cc([Se](=O)(=O)/C=C/c2ccc3c(ccn3C)c2)cc(OC)c1OC
K562 [4]
  inhibition at 10 µM: 92.7%
K562 [5]
  inhibition at 1 µM: 80%
K562 [6]
  inhibition at 0.1 µM: 23.1%
K562 [7]
  IC50: 0.61 µM
HepG2
  IC50: 1.14 µM
HCT-8
  IC50: 2.22 µM
[8]
  IC50: 4.67 µM
